Source: patent US20260226069A1, “GCN2 AND PERK KINASE MODULATORS AND METHODS OF USE THEREOF” (Deciphera Pharmaceuticals, LLC, priority 2023, published 2026)

How the values were obtained:
PERK kinase = target: T1, PERK kinase (Homo sapiens, UniProt Q9NZJ5, A704S); assay: Biochemical assay for PERK (coupled pyruvate kinase/lactate dehydrogenase assay); details: 10 nM PERK, 1 mM ATP, reaction rate 2-3 h time frame, 30° C.
T1 construct: GST (with thrombin site LVPRGS); purchased Beryllium
Description: Biochemical Assay for PERK
Activity of PERK kinase was determined spectroscopically using a coupled pyruvate kinase/lactate dehydrogenase assay that continuously monitors the ATP hydrolysis-dependent oxidation of NADH (Science, 2000, 289, 1938-1942). Assays were conducted in 384-well plates (100 μL final volume) using 10 nM PERK (from Beryllium), 0.25 mg/mL Myelin Basic Protein substrate, 1.5 units pyruvate kinase, 2.1 units lactate dehydrogenase, 1 mM phosphoenol pyruvate, 0.28 mM NADH and 1 mM ATP in assay buffer (100 mM Tris, pH 7.5, 15 mM MgCl2, 0.5 mM DTT, 0.004% (w/v) BSA, and 0.004% Triton X-100). Inhibition of PERK was measured by adding serial diluted test compound (final assay concentration of 1% DMSO). A decrease in absorption at 340 nm was monitored continuously for 6 hours at 30° C. on a multi-mode microplate reader (BioTek). The reaction rate was calculated using the 2-3 h time frame. The reaction rate at each concentration of compound was converted to percent inhibition using controls (i.e., reaction with no test compound and reaction with a known inhibitor) and IC50 values were calculated using software routines in Prism (GraphPad software).

[1] = system: ATF4 in Thapsigargin stimulated CCRF-CEM cells; assay: CCRF-CEM TG ATF4 ELISA, phenotypic assay for cellular inhibition of PERK preactivated by thapsigargin; assay type: cell-based; details: Homo sapiens, 3 h, compound three hours then 1 μM thapsigargin for an additional hour
Description: CCRF-CEM TG ATF4 ELISA, a Phenotypic Assay for Cellular Inhibition of PERK Preactivated by Thapsigargin (TG)
CCRF-CEM leukemia cells (catalog #CCL-116) were obtained from the American Type Culture Collection (ATTC, Manassas, VA). Briefly, cells were grown in RPMI-1640 medium supplemented with 10% heat-inactivated fetal bovine serum (Invitrogen, Carlsbad, CA) and 1% Penicillin/Streptomycin/L-Glutamine at 37° C., 5% CO2, and 95% humidity. Cells were expanded until reaching one million cells per mL at which time they were subcultured or harvested for assay use. One million five hundred thousand cells per well in 1 mL complete growth medium were dispensed into 12-well plates and incubated overnight. A serial dilution of test compound was added and cells were incubated at 37° C., 5% CO2, and 95% for three hours, then 1 μM thapsigargin was added and cells were incubated for an additional hour at 37° C., 5% CO2, and 95%. Cells were lysed then ATF4 levels were measured using an ELISA assay (Proteintech, Rosemont, IL). Absorbance was measured at 450 nm and 544 nM using a Synergy2 or equivalent reader (Biotek, Winooski VT). Data was analyzed using PRISM software (Graphpad, San Diego, CA) to calculate IC50 values.

GCN2 kinase = target: T2, GCN2 kinase (Homo sapiens, UniProt Q9P2K8); assay: Biochemical assay for GCN2 (TR-FRET kinase activity assay); details: 2 nM GCN2, 1 mM ATP, 3-hour incubation
T2 construct: G556E with a; purchased Carna Biosciences
Description: Biochemical assay for GCN2
Activity of GCN2 kinase was determined using a TR-FRET kinase activity assay (e.g., Analytical Biochemistry, 2006, 356, 108-116). Assays were conducted in 384-well plates (13 μL assay volume) using 2 nM GCN2 (Carna Biosciences), 130 nM GFP-EIf2α (Invitrogen), 0.2 mg/mL E. coli tRNA (sigma) and 1 mM ATP in kinase buffer (Invitrogen). Inhibition of GCN2 was measured by adding serial diluted test compound (final assay concentration of 0.5% DMSO) followed by a 3-hour incubation. Tb-peIF2α (pSer52) antibody (Invitrogen) (2 nM final assay concentration) in kinase buffer containing EDTA (final assay concentration of 20 mM) was added. After a 60 min incubation at room temperature, TR-FRET was monitored using an excitation wavelength of 340 nm and emission wavelengths of 490 nm and 520 nm. The emission ratio (520/490) at each compound concentration of was converted to percent inhibition using controls (i.e., reaction with no test compound and reaction with a known inhibitor) and IC50 values were calculated by fitting a four-parameter sigmoidal curve to the data using Prism (GraphPad software).

[2] = system: ASNase treated CCRF-CEM cells; assay: CCRF-CEM ASNase cell proliferation assay, phenotypic assay for cellular inhibition of GCN2; assay type: cell-based; details: Homo sapiens, 1 mU/mL ASNase, 72 h, resazurin
Description: CCRF-CEM ASNase Cell Proliferation Assay, a Phenotypic Assay for Cellular Inhibition of GCN2.
CCRF-CEM leukemia cells (catalog #CCL-116) were obtained from the American Type Culture Collect (ATTC, Manassas, VA). Cells were grown in RPMI-1640 medium supplemented with 10% heat-inactivated fetal bovine serum (Invitrogen, Carlsbad, CA) and 1% Penicillin/Streptomycin/L-Glutamine at 37° C., 5% CO2, and 95% humidity. Cells were expanded until reaching one million cells per mL at which time they are subcultured or harvested for assay use. Ten thousand cells per well in 200 μL RPMI-1640 supplemented with 10% heat-inactivated fetal bovine serum and 1% Penicillin/Streptomycin were dispensed into a 96-well black clear bottom plate. A serial dilution of test compound and 1 mU/mL ASNase was added in triplicate and plates were incubated for 72 h at 37° C., 5% CO2, and 95% humidity. At the end of the incubation, 40 μL of a […] solution of resazurin (Sigma, St. Louis, MO) in PBS was added to each well of the plate and plates were incubated for an additional 6 h at 37° C., 5% CO2, and 95% humidity. Plates were read on a Synergy2 or equivalent reader (Biotek, Winooski VT) using an excitation of 540 nm and an emission of 600 nm. Data was analyzed using GraphPad Prism software (GraphPad, San Diego, CA) to calculate IC50 values.

T1 sequence (Q9NZJ5 with tags, fused parts or gaps A704S): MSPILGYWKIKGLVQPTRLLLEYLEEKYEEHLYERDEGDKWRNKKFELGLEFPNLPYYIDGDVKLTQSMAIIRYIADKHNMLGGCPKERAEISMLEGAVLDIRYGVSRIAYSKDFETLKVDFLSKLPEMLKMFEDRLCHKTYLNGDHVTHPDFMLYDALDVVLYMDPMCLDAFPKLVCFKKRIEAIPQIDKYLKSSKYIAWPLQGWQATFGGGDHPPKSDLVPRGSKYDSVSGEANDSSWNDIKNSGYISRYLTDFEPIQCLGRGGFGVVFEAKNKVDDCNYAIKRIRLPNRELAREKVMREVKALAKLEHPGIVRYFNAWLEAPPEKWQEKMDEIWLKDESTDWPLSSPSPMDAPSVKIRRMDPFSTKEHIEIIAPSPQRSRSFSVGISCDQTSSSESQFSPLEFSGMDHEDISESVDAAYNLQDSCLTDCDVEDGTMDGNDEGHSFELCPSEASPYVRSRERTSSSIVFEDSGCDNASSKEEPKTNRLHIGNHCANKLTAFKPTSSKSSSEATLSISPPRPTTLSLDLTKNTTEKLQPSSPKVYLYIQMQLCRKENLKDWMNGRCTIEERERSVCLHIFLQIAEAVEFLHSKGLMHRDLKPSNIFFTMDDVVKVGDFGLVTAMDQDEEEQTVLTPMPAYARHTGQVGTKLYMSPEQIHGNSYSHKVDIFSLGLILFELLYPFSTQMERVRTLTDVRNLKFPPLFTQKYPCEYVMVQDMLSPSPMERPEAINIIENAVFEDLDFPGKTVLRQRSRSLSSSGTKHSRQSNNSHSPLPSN

| Structure (SMILES) | IC50 (PERK kinase) | IC50 [1] | IC50 (GCN2 kinase) | IC50 [2] |
| --- | --- | --- | --- | --- |
| Cn1cc(-c2cccc(NS(=O)(=O)c3ccc(Cl)c(CO)c3F)c2F)c2c(N)ncnc21 [Example 5] | 0.5 to 1 µM | 1 to 10 µM | 1 to 10 µM | 1 to 10 µM |
| Cc1c(CO)cc(F)cc1S(=O)(=O)Nc1cccc(-c2nc(C)n3ccnc(N)c23)c1F [Example 6] | ≤ 0.1 µM | 1 to 10 µM | 1 to 10 µM | 1 to 10 µM |
| Cc1nc(-c2cccc(NS(=O)(=O)c3cc(Cl)cc(CO)c3F)c2F)c2c(N)nccn12 [Example 7] | ≤ 0.1 µM | 1 to 10 µM | 0.5 to 1 µM | 1 to 10 µM |
| Cc1nc(-c2cccc(NS(=O)(=O)c3cc(F)cc(CO)c3Cl)c2F)c2c(N)nccn12 [Example 8] | ≤ 0.1 µM | 0.1 to 0.5 µM | 0.5 to 1 µM | 0.5 to 1 µM |
| Cn1cc(-c2cccc(NS(=O)(=O)c3cc(CO)c(F)cc3F)c2F)c2c(N)ncnc21 [Example 10] | 0.1 to 0.5 µM | 1 to 10 µM | 1 to 10 µM | 1 to 10 µM |
| COc1c(CO)cc(Cl)cc1S(=O)(=O)Nc1cccc(-c2nc(C)n3ccnc(N)c23)c1F [Example 11] | 0.1 to 0.5 µM | 0.5 to 1 µM | 1 to 10 µM | 1 to 10 µM |
| Cc1nc(-c2cccc(NS(=O)(=O)c3cc(F)cc(CO)c3F)c2F)c2c(N)nccn12 [Example 15] | 0.1 to 0.5 µM | 1 to 10 µM | 1 to 10 µM | 1 to 10 µM |
| COCCNc1nc(-c2cccc(NS(=O)(=O)c3cc(Cl)cc(CO)c3Cl)c2F)c2c(N)nccn12 [Example 23] | ≤ 0.1 µM | 0.1 to 0.5 µM | 0.1 to 0.5 µM | 0.1 to 0.5 µM |
| Cn1cc(-c2cccc(NS(=O)(=O)c3ccc(F)c(CO)c3Cl)c2F)c2c(N)ncnc21 [Example 24] | 0.1 to 0.5 µM | 1 to 10 µM | 1 to 10 µM | 1 to 10 µM |
| CCNc1nc(-c2cccc(NS(=O)(=O)c3cc(Cl)cc(CO)c3Cl)c2F)c2c(N)nccn12 [Example 27] | ≤ 0.1 µM | 0.1 to 0.5 µM | ≤ 0.1 µM | 0.1 to 0.5 µM |
| COc1ncc(Cl)cc1S(=O)(=O)Nc1cc(F)c(F)c(-c2nc(C)n3ccnc(N)c23)c1 [Example 28] | 0.5 to 1 µM | 1 to 10 µM | 1 to 10 µM | 1 to 10 µM |
| CCC(C)(C)C(=O)OCc1cc(Cl)cc(S(=O)(=O)Nc2cccc(-c3nc(C)n4ccnc(N)c34)c2F)c1Cl [Example 29] | 1 to 10 µM | 1 to 10 µM | 1 to 10 µM | 1 to 10 µM |
| CC(=O)OCc1cc(Cl)cc(S(=O)(=O)Nc2cccc(-c3nc(C(C)(C)C)n4ccnc(N)c34)c2F)c1Cl [Example 30] | 0.1 to 0.5 µM | 1 to 10 µM | 1 to 10 µM | 1 to 10 µM |
| Cc1nc(-c2cccc(NS(=O)(=O)c3cc(Cl)cc(COC(=O)C4CC4)c3Cl)c2F)c2c(N)nccn12 [Example 31] | 1 to 10 µM | 1 to 10 µM | 1 to 10 µM | 1 to 10 µM |
| CCC(=O)OCc1cc(Cl)cc(S(=O)(=O)Nc2cccc(-c3nc(C)n4ccnc(N)c34)c2F)c1Cl [Example 32] | 0.5 to 1 µM | 1 to 10 µM |  | 1 to 10 µM |
| CCCC(=O)OCc1cc(Cl)cc(S(=O)(=O)Nc2cccc(-c3nc(C)n4ccnc(N)c34)c2F)c1Cl [Example 33] | 0.5 to 1 µM | 0.1 to 0.5 µM | 1 to 10 µM | 0.1 to 0.5 µM |
| Cn1cc(-c2cccc(NS(=O)(=O)c3ccc(Br)c(C(F)(F)F)c3)c2F)c2c(N)ncnc21 [Example 36] | 0.1 to 0.5 µM | 1 to 10 µM | 1 to 10 µM | 1 to 10 µM |
| COc1cc(F)c(S(=O)(=O)Nc2cccc(-c3cn(C)c4ncnc(N)c34)c2F)cc1Cl [Example 37] | ≤ 0.1 µM | 0.1 to 0.5 µM | 0.1 to 0.5 µM | 0.5 to 1 µM |
| COC(=O)c1cccc(S(=O)(=O)Nc2cccc(-c3cn(C)c4ncnc(N)c34)c2F)c1Cl [Example 39] | 0.1 to 0.5 µM | 1 to 10 µM | 1 to 10 µM | 1 to 10 µM |
| COC(=O)c1cc(Cl)cc(S(=O)(=O)Nc2cccc(-c3cn(C)c4ncnc(N)c34)c2F)c1Cl [Example 40] | ≤ 0.1 µM | 1 to 10 µM | 1 to 10 µM | 1 to 10 µM |
| COc1cc(Cl)c(S(=O)(=O)Nc2cccc(-c3cn(C)c4ncnc(N)c34)c2F)cc1Cl [Example 41] | ≤ 0.1 µM | 0.1 to 0.5 µM | 1 to 10 µM | 1 to 10 µM |
| Cn1cc(-c2cccc(NS(=O)(=O)c3cc(Cl)cc(Br)c3Cl)c2F)c2c(N)ncnc21 [Example 42] | ≤ 0.1 µM | 1 to 10 µM | 0.1 to 0.5 µM | 1 to 10 µM |
| COc1ccc(S(=O)(=O)Nc2cccc(-c3cn(C)c4ncnc(N)c34)c2F)cc1Cl [Example 44] | ≤ 0.1 µM | 0.5 to 1 µM | 1 to 10 µM | 1 to 10 µM |
| COc1ncc(Cl)cc1S(=O)(=O)Nc1cccc(-c2cn(C)c3ncnc(N)c23)c1F [Example 45, N-(3-(4-amino-7-methyl-7H-pyrrolo[2,3-d]pyrimidin-5-yl)-2-fluorophenyl)-5-chloro-2-methoxypyridine-3-sulfonamide] | ≤ 0.1 µM | 0.1 to 0.5 µM | 1 to 10 µM | 1 to 10 µM |
| COCc1cc(Cl)cc(S(=O)(=O)Nc2cccc(-c3nc(C)n4ccnc(N)c34)c2F)c1Cl [Example 48, N-(3-(8-amino-3-methylimidazo[1,5-a]pyrazin-1-yl)-2-fluorophenyl)-2,5-dichloro-3-(methoxymethyl)benzenesulfonamide] | ≤ 0.1 µM | 1 to 10 µM | 0.5 to 1 µM | 1 to 10 µM |
| Cn1cc(-c2cccc(NS(=O)(=O)c3cc(Cl)cc(CN)c3Cl)c2F)c2c(N)ncnc21 [Example 49] | 0.1 to 0.5 µM | 0.5 to 1 µM | 1 to 10 µM | 1 to 10 µM |
| CNCc1cc(Cl)cc(S(=O)(=O)Nc2cccc(-c3cn(C)c4ncnc(N)c34)c2F)c1Cl [Example 50] | 0.5 to 1 µM | 1 to 10 µM | 1 to 10 µM | 1 to 10 µM |
| CO/N=C\c1cc(Cl)cc(S(=O)(=O)Nc2cccc(-c3cn(C)c4ncnc(N)c34)c2F)c1Cl [Example 53] | ≤ 0.1 µM | 1 to 10 µM | 1 to 10 µM | 1 to 10 µM |
